Measured values taken from US20260001879A1, “COMPOUNDS AS MYT1 INHIBITORS” (WIGEN BIOMMEDICINE TECHNOLOGY (SHANGHAI) CO., LTD., priority 2022, published 2026).
pIC50: −log10 of the molar value.

Assays:
MIA PaCa-2 cells [1] = assay: In vitro anti-proliferative activity against MIA PaCa-2 cells (compound alone); type: cell-based; settings: intracellular ATP content
Experimental: (§1) MIA PaCa-2 cells were seeded on a 384-well plate at 3000 cells/well. After overnight adherence culture, DMSO or the compounds serially diluted 1:5 from 10 μM were added. The viability was assessed 72 h after dosing by measuring the intracellular ATP content. The inhibition percentage of viable cells by the compounds was calculated by comparing with the DMSO group, and the IC50 value was calculated.

MIA PaCa-2 cells [2] = assay: In vitro anti-proliferative activity in combination with gemcitabine against MIA PaCa-2 cells; type: cell-based
Experimental: as §1, with “cells/well, and 20 nM gemcitabine was added.” for “cells/well.”, “1000 nM” for “10 μM”

recombinant protein MYT1 = recombinant protein MYT1 (Homo sapiens (Human), UniProt Q99640); assay: In vitro assay for inhibiting MYT1 kinase activity (ADP-GLO); type: biochemical; settings: 10 μM ATP, read-out: Inhibitory activity against recombinant protein MYT1 IC50
recombinant protein MYT1, sequence (Q99640 whole entry): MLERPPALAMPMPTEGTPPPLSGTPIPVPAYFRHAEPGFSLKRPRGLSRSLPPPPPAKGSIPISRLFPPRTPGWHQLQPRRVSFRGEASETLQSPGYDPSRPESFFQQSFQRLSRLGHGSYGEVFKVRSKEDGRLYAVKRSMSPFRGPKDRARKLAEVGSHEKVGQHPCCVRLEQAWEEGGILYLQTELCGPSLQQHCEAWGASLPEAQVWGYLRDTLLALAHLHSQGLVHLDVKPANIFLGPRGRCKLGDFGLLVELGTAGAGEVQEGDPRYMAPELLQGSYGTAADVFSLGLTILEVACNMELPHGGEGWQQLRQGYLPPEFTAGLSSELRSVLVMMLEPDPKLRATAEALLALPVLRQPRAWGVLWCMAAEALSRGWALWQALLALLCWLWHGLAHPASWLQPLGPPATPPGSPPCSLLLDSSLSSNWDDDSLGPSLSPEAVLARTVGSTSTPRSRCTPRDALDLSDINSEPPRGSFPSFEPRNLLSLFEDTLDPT
Experimental: Recombinant MYT1 protein and the compounds were pre-incubated at room temperature for 15 min, and 10 μM ATP was then added to start the reaction. The mixture was incubated at room temperature for another 60 min, and the ADP-GLO reagent from Promega was then added. The resulting mixture was incubated in the dark for 40 min, a detection solution was then added, and the mixture was incubated for another 45-60 min. The chemiluminescence was determined using ENVISION. The inhibition rate and IC50 were calculated compared to the DMSO group.

[3] = tested on: P-glycoprotein (P-gp, MDR1); assay: in vitro; settings: dog; for Papp A→B / Papp B→A: 5 μM
Experimental: (§2) In vitro passive permeability or the ability to serve as a P-glycoprotein (P-gp) transport substrate was tested using MDCK cells (MDCK wild type) or MDCK cells stably transduced with MDRI (MDCK-MDRI), respectively. The permeability experiment was performed in duplicate in a transwell system at a single concentration (5 μM). The cells were incubated for […] Apical-to-basolateral (A to B, A-B) transport and basolateral-to-apical (B to A, B-A) transport of the corresponding compound were determined, and the permeation rate (apparent permeability) (Papp×10^−6 cm/sec) and efflux ratio (Papp (B−A)/Papp (A−B)) of the test compound were calculated.

[4] = In vitro permeability experiment, MDCK wild type cells; settings: dog
Experimental: as §2

[5] = read-out: Anti-proliferative activity against MIA PaCa-2 cells (20 nM gemcitabine) IC50, with 20 nM gemcitabine, 72 h, intracellular ATP content
[6] = Homo sapiens, MIA PaCa-2, 72 h, read-out: Anti-proliferative activity against MIA PaCa-2 cells (20 nM gemcitabine) IC50, with 20 nM gemcitabine, 72 h, intracellular ATP content

Work on `Cc1cc2c(C(N)=O)c(N)n(-c3c(C)cc(F)c(O)c3C)c2nc1C` (single isomer, unassigned) [Compound 7] yielded a pIC50 (MIA PaCa-2 cells [1]; 72 h) of under 5.00, a pIC50 (MIA PaCa-2 cells [2]; [5]) of under 6.00 and a pIC50 (recombinant protein MYT1) of at least 6.70.

In the case of `Cc1cc2c(C(N)=O)c(N)n(-c3c(C)c(O)cc(F)c3C)c2nc1C` (single isomer, unassigned) [Compound 3], the pIC50 (MIA PaCa-2 cells [1]; 72 h) was under 5.00, the pIC50 (MIA PaCa-2 cells [2]; [5]) was 5.91 and the pIC50 (recombinant protein MYT1) was at least 6.70.

With `Cc1cc2c(C(N)=O)c(N)n(-c3c(C)cc4c(c3C)NCC4)c2nc1C` [Compound 151] the pIC50 (MIA PaCa-2 cells [2]; [5]) was under 6.00.

In the case of `Cc1cc2c(C(N)=O)c(N)n(-c3c(C)cc4c(c3C)NCC4)c2nc1C` [Compound 150], the pIC50 (MIA PaCa-2 cells [2]; [6]) was under 6.00.

`Cc1ccc(O)c(C)c1-n1c(N)c(C(N)=O)c2cc3c(nc21)COC3` [Compound 16] showed a pIC50 (MIA PaCa-2 cells [1]; Homo sapiens, MIA PaCa-2, 72 h) of under 5.00, a pIC50 (MIA PaCa-2 cells [2]; [5]) of 7.00 and a pIC50 (recombinant protein MYT1) of at least 6.70.

`Cc1cc2c(C(N)=O)c(N)n(-c3c(C)ccc(O)c3C)c2nc1C#N` [Compound 12] showed a pIC50 (MIA PaCa-2 cells [2]; [6]) of 6.64 and a pIC50 (recombinant protein MYT1) of at least 6.70.

In the case of `Cc1cc2c(C(N)=O)c(N)n(-c3c(C)cc(F)c(O)c3C)c2nc1C` (single isomer, unassigned) [Compound 6], the pIC50 (MIA PaCa-2 cells [1]; Homo sapiens, MIA PaCa-2, 72 h) was under 5.00, the pIC50 (MIA PaCa-2 cells [2]; [5]) was 6.78 and the pIC50 (recombinant protein MYT1) was at least 6.70.

For `Cc1cc2c(C(N)=O)c(N)n(-c3c(C)c(O)cc4c3CCC4)c2nc1C` (atropisomer, axis not shown) [Compound 117], the pIC50 (MIA PaCa-2 cells [2]; [5]) was under 6.00.

Compound `COCCc1ccc(OCC(O)CNC(C)C)cc1` (stereo not shown) [Metoprolol, metoprolol] has a Papp A→B ([3]; MDCK-MDR1, Papp A-B Mean, MDCK-MDR1, A-B, mean) of 37 ×10⁻⁶ cm/s, a Papp A→B ([3]; MDCK-MDR1, Papp A-B Sample - 01, MDCK-MDR1, A-B, replicate 01) of 37.6 ×10⁻⁶ cm/s and a Papp A→B ([3]; MDCK-MDR1, Papp A-B Sample - 02, MDCK-MDR1, A-B, replicate 02) of 36.3 ×10⁻⁶ cm/s. It also gave a Papp B→A ([3]; MDCK-MDR1, Papp B-A Mean, MDCK-MDR1, B-A, mean) of 20.1 ×10⁻⁶ cm/s, a Papp B→A ([3]; MDCK-MDR1, Papp B-A Sample - 01, MDCK-MDR1, B-A, replicate 01) of 20.1 ×10⁻⁶ cm/s and a Papp B→A ([3]; MDCK-MDR1, Papp B-A Sample - 02, MDCK-MDR1, B-A, replicate 02) of 20.2 ×10⁻⁶ cm/s. It also gave a Papp A→B at 90 min, 5 µM ([4]; Papp A-B Mean, MDCK-Wild type, A-B, 5 μM, mean) of 24.3 ×10⁻⁶ cm/s, a Papp A→B at 90 min, 5 µM ([4]; Papp A-B Sample - 01, MDCK-Wild type, A-B, 5 μM, replicate 01) of 26.5 ×10⁻⁶ cm/s and a Papp A→B at 90 min, 5 µM ([4]; Papp A-B Sample - 02, MDCK-Wild type, A-B, 5 μM, replicate 02) of 22.2 ×10⁻⁶ cm/s. It also gave a Papp B→A at 90 min, 5 µM ([4]; Papp B-A Mean, MDCK-Wild type, B-A, 5 μM, mean) of 21.3 ×10⁻⁶ cm/s, a Papp B→A at 90 min, 5 µM ([4]; Papp B-A Sample - 01, MDCK-Wild type, B-A, 5 μM, replicate 01) of 18.6 ×10⁻⁶ cm/s and a Papp B→A at 90 min, 5 µM ([4]; Papp B-A Sample - 02, MDCK-Wild type, B-A, 5 μM, replicate 02) of 24 ×10⁻⁶ cm/s.

Compound `C[C@H]1O[C@@H](O[C@H]2[C@@H](O)C[C@H](O[C@H]3[C@@H](O)C[C@H](O[C@H]4CC[C@@]5(C)[C@H](CC[C@@H]6[C@@H]5C[C@@H](O)[C@]5(C)[C@@H](C7=CC(=O)OC7)CC[C@]65O)C4)O[C@@H]3C)O[C@@H]2C)C[C@H](O)[C@@H]1O` [Digoxin] has an efflux ratio at 90 min, 5 μM ([3]; MDCK-MDR1) of 21.4, a Papp A→B at 90 min, 5 µM ([3]; MDCK-MDR1, Papp A-B Mean) of 0.96 ×10⁻⁶ cm/s and a Papp A→B at 90 min, 5 µM ([3]; MDCK-MDR1, Papp A-B Sample - 01) of 0.96 ×10⁻⁶ cm/s. The Papp A→B at 90 min, 5 µM ([3]; MDCK-MDR1, Papp A-B Sample - 02) was 0.96 ×10⁻⁶ cm/s, the Papp B→A at 90 min, 5 µM ([3]; MDCK-MDR1, Papp B-A Mean) was 20.6 ×10⁻⁶ cm/s and the Papp B→A at 90 min, 5 µM ([3]; MDCK-MDR1, Papp B-A Sample - 01) was 17.7 ×10⁻⁶ cm/s. For the same compound, the Papp B→A at 90 min, 5 µM ([3]; MDCK-MDR1, Papp B-A Sample - 02) was 23.5 ×10⁻⁶ cm/s, the efflux ratio at 90 min, 5 μM ([4]; MDCK) was 2.69 and the Papp A→B at 90 min, 5 µM ([4]; MDCK, Papp A-B Mean) was 1.79 ×10⁻⁶ cm/s. For the same compound, the Papp A→B at 90 min, 5 µM ([4]; MDCK, Papp A-B Sample - 01) was 1.9 ×10⁻⁶ cm/s, the Papp A→B at 90 min, 5 µM ([4]; MDCK, Papp A-B Sample - 02) was 1.68 ×10⁻⁶ cm/s and the Papp B→A at 90 min, 5 µM ([4]; MDCK, Papp B-A Mean) was 4.8 ×10⁻⁶ cm/s. It also gave a Papp B→A at 90 min, 5 µM ([4]; MDCK, Papp B-A Sample - 01) of 4.64 ×10⁻⁶ cm/s and a Papp B→A at 90 min, 5 µM ([4]; MDCK, Papp B-A Sample - 02) of 4.96 ×10⁻⁶ cm/s.

Compound `Cc1ccc(O)c(C)c1-n1c(N)c(C(N)=O)c2cc(C#N)c(C)nc21` [Compound 10] has a pIC50 (MIA PaCa-2 cells [1]; 72 h) of 5.37, a pIC50 (MIA PaCa-2 cells [2]; [5]) of 7.35 and a pIC50 (recombinant protein MYT1) of at least 6.70.

`Cc1cc2c(C(N)=O)c(N)n(-c3c(C)c(O)cc4c3CCC4)c2nc1C` [Compound 116] gave a pIC50 (MIA PaCa-2 cells [2]; [6]) of under 6.00.

`Cc1ccc(O)c(C)c1-n1c(N)c(C(N)=O)c2cc(C#N)c(C)nc21` [Compound 11] showed a pIC50 (MIA PaCa-2 cells [1]; 72 h) of under 5.00, a pIC50 (MIA PaCa-2 cells [2]; [5]) of under 6.00 and a pIC50 (recombinant protein MYT1) of at least 6.70.

With `Cc1cc2c(C(N)=O)c(N)n(-c3c(C)c(O)cc(Br)c3C)c2nc1C` [Compound 196] the pIC50 (recombinant protein MYT1) was at least 6.70.

Compound `Cc1ccc(O)c(C)c1-n1c(N)c(C(N)=O)c2cc3c(nc21)OCCC3` [Compound 35] has a pIC50 (recombinant protein MYT1) of at least 6.70.

`Cc1ccc(O)c(C)c1-n1c(N)c(C(N)=O)c2cc3c(nc21)CCN3` [Compound 77] gave a pIC50 (recombinant protein MYT1) of at least 6.70.

With `Cc1cc2c(C(N)=O)c(N)n(-c3c(C)ccc(=O)n3C)c2nc1C` [Compound 178] the pIC50 (recombinant protein MYT1) was at least 6.70.

`Cc1ccc(O)c(C)c1-n1c(N)c(C(N)=O)c2cc3c(ncn3C)nc21` [Compound 66] gave a pIC50 (recombinant protein MYT1) of at least 6.70.

Compound `Cc1cc2c(C(N)=O)c(N)n(-c3c(C)c(O)cc(F)c3C)c2nc1C#N` [Compound 143] has a pIC50 (recombinant protein MYT1) of at least 6.70.

`Cc1cc2c(C(N)=O)c(N)n(-c3c(C)cc4c(c3C)NCC4)c2nc1C` [Compound 149] showed a pIC50 (recombinant protein MYT1) of at least 6.70.

With `Cc1ccc(O)c(C)c1-n1c(N)c(C(N)=O)c2cnc(C#N)cc21` [Compound 172] the pIC50 (recombinant protein MYT1) was at least 6.70.

Work on `Cc1ccc(O)c(C)c1-n1c(N)c(C(N)=O)c2cc3c(nc21)CN(C)C3` [Compound 93] yielded a pIC50 (recombinant protein MYT1) of at least 6.70.

`Cc1cc2c(C(N)=O)c(N)n(-c3c(C)cc4c(c3C)OCC4)c2nc1C` [Compound 152] gave a pIC50 (recombinant protein MYT1) of at least 6.70.

`COc1cc(O)c(C)c(-n2c(N)c(C(N)=O)c3cc(C)c(C)nc32)c1C` [Compound 223] showed a pIC50 (recombinant protein MYT1) of at least 6.70.

`Cc1ccc(O)c(C)c1-n1c(N)c(C(N)=O)c2cc3c(nc21)CCN(C)C3` [Compound 97] showed a pIC50 (MIA PaCa-2 cells [1]; Homo sapiens, MIA PaCa-2, 72 h) of under 5.00, a pIC50 (MIA PaCa-2 cells [2]; [5]) of 7.00 and a pIC50 (recombinant protein MYT1) of at least 6.70.

Work on `Cc1ccc(O)c(C)c1-n1c(N)c(C(N)=O)c2cc3c(nc21)NCCC3` [Compound 103] yielded a pIC50 (recombinant protein MYT1) of at least 6.70.

`Cc1ccc(O)c(C)c1-n1c(N)c(C(N)=O)c2cc3ccncc3nc21` [Compound 44] showed a pIC50 (recombinant protein MYT1) of at least 6.70.

Compound `Cc1cc2c(C(N)=O)c(N)n(-c3c(C)cc4cc[nH]c4c3C)c2nc1C` [Compound 153] has a pIC50 (MIA PaCa-2 cells [2]; [6]) of under 6.00 and a pIC50 (recombinant protein MYT1) of at least 6.70.

Compound `Cc1ccc(O)c(C)c1-n1c(N)c(C(N)=O)c2cc3c(nc21)CCO3` [Compound 18] has a pIC50 (recombinant protein MYT1) of at least 6.70.

In the case of `Cc1cc2c(C(N)=O)c(N)n(-c3c(C)c(O)cc4ccoc34)c2nc1C` [Compound 130], the pIC50 (recombinant protein MYT1) was at least 6.70.

`Cc1ccc(O)c(C)c1-n1c(N)c(C(N)=O)c2cc3c(nc21)COC3` [Compound 17] gave a pIC50 (MIA PaCa-2 cells [1]; 72 h) of under 5.00, a pIC50 (MIA PaCa-2 cells [2]; [5]) of under 6.00 and a pIC50 (recombinant protein MYT1) of at least 6.70.

`Cc1ccc(O)c(C)c1-n1c(N)c(C(N)=O)c2cc3c(nc21)CCN(C)C3` (atropisomer, axis not shown) [Compound 98] gave a pIC50 (MIA PaCa-2 cells [1]; 72 h) of under 5.00, a pIC50 (MIA PaCa-2 cells [2]; [5]) of under 6.00 and a pIC50 (recombinant protein MYT1) of at least 6.70.
